# Data from patent publication US7655799B2, “2{[2-(substituted amino)ethyl]sulfonyl}ethyl N,N,N',N'-tetrakis(2-chloroethyl)phosphorodiamidates” (Telik, Inc., priority 2006, dated 2010).
# Key:
# [1] = system: MX-1 tumor; experiment: MX-1 Xenograft Assay, Intraperitoneal Administration; type: in vivo, athymic nu/nu mice; details: hydrochloride salts in aqueous 5% dextrose
# Protocol: (§1) Female athymic nu/nu mice (Harlan, Indianapolis, Ind., U.S.A. or similar vendor), 6-8 weeks old (approximately 20 g), were implanted in the mammary fat pad of the right fore flank with 20-30 mg pieces of MX-1 tumor harvested from similar nu/nu mice that had previously been implanted with the MX-1 tumor. […] Groups of mice were treated with compounds 2A and 3A at 50 mg/Kg and compounds 1A, 2A, 3A, and 5A at 100 mg/Kg, in all cases as the hydrochloride salts dissolved in aqueous 5% dextrose, by intraperitoneal injection once/day for 5 consecutive days, with vehicle control. Tumor mass, estimated from volume, was measured twice weekly; and tumor growth inhibition was measured when the average tumor mass in the control group first exceeded 2000 mg. All compounds were active in this assay, with tumor growth inhibition compared to vehicle of 70% and 23% for compounds 2A and 3A, respectively, at 50 mg/Kg, and 100%, 100%, 100%, and 91% for compounds 1A, 2A, 3A, and 5A, respectively, at 100 mg/Kg.
# [2] = system: DLD-1 (colorectal adenocarcinoma); experiment: Cytotoxicity/Growth Inhibition Assay (CellTiter-Glo), DLD-1; type: cell-based; details: Homo sapiens, DLD-1, 96 h; hydrochloride salts; 4 days culture
# Protocol: (§2) The human cancer cell lines DLD-1 (colorectal adenocarcinoma), LNCaP (prostate carcinoma), and MIA PaCa-2 (pancreatic carcinoma) were obtained from the American Type Culture Collection, Manassas, Va., U.S.A., and MX-1 (breast carcinoma) from the National Cancer Institute, Bethesda, Md., U.S.A. The CellTiter-Glo assay kit was obtained from Promega Corporation, Madison, Wis., U.S.A. All products were used in accordance with manufacturer's directions. All assays were conducted in triplicate wells, with dimethyl sulfoxide (DMSO) solvent control. The extent of cell growth was expressed as a percentage of the signal from the solvent control wells.
# (§3) Log-phase cells were trypsinized, collected by centrifugation, and resuspended in a small volume of fresh medium, and the density of viable cells was determined following Trypan Blue staining. Cells were diluted in fresh media (3×10^3 cells/mL for DLD-1, MIA PaCa-2, and MX-1, and 6×10^3 cells/mL for LNCaP), and added at 150 μL/well to 96-well plates, and incubated for several hours to allow attachment in the case of adherent cells. Compounds 1A to 5A, as their hydrochloride salts, dissolved in DMSO, was diluted 50-fold with fresh medium and the diluted solutions immediately added at 50 μL/well to the cell suspensions, giving final compound concentrations between 0.1 μM and 200 μM and a final DMSO concentration of 0.5%. The cells were cultured for approximately three doubling times (3 days for MIA PaCa-2 and MX-1, and 4 days for DLD-1 and LNCaP). The cells were then collected by centrifugation, and 100 μL of the culture supernatant was replaced by the CellTiter-Glo reagent. After incubation for 10 minutes at room temperature, and the plate was read with a luminometer. A number of compounds of formula A were tested in this assay and found to be active.
# [3] = system: LNCaP (prostate carcinoma); experiment: Cytotoxicity/Growth Inhibition Assay (CellTiter-Glo), LNCaP; type: cell-based; details: Homo sapiens, 96 h, hydrochloride salts, 4 days culture
# Protocol: as §2, §3
# [4] = system: MIA PaCa-2 (pancreatic carcinoma); experiment: Cytotoxicity/Growth Inhibition Assay (CellTiter-Glo), MIA PaCa-2; type: cell-based; details: Homo sapiens, MIA PaCa-2, 72 h; hydrochloride salts; 3 days culture
# Protocol: as §2, §3
# [5] = system: MX-1 (breast carcinoma); experiment: Cytotoxicity/Growth Inhibition Assay (CellTiter-Glo), MX-1; type: cell-based; details: Homo sapiens, 72 h; hydrochloride salts; 3 days culture
# Protocol: as §2, §3
# [6] = Solubility in water of salts; details: for solubility: water, solubility in water
# [7] = system: MX-1 tumor; experiment: MX-1 Xenograft Assay, Oral Administration; type: in vivo, athymic nu/nu mice; details: hydrochloride salt in water
# Protocol: as §1
# A study similar to that described in In vivo Example 1 was performed using oral administration of compounds 2A and 3A. Groups of mice were treated with compound 2A at 100, 150, 200, or 300 mg/Kg, or compound 3A at 150 mg/Kg, in each case as the hydrochloride salts dissolved in water, by gavage once/day for 5 consecutive days, with vehicle control. Both compounds were active in this assay and compound 2A caused dose-dependent tumor inhibition.
# [8] = system: human cancer cell lines DLD-1, LNCaP, MIA PaCa-2, MX-1; experiment: Cytotoxicity/Growth Inhibition Assay, all cell lines, comparison with canfosfamide; type: cell-based; details: all assays (DLD-1, LNCaP, MIA PaCa-2, MX-1)
# Protocol: as §2
# Log-phase cells were trypsinized, collected by centrifugation, and resuspended in a small volume of fresh medium, and the density of viable cells was determined following Trypan Blue staining. Cells were diluted in fresh media (3×10^3 cells/mL for DLD-1, MIA PaCa-2, and MX-1, and 6×10^3 cells/mL for LNCaP), and added at 150 μL/well to 96-well plates, and incubated for several hours to allow attachment in the case of adherent cells. […] After incubation for 10 minutes at room temperature, and the plate was read with a luminometer. […]
# [9] = system: MIA PaCa-2 tumor; experiment: MiaPaCa-2 Xenograft Assay, Intraperitoneal Administration; type: in vivo, athymic nu/nu mice; details: 100 mg/Kg intraperitoneal once/day for 7 days; for tumor growth inhibition compared to vehicle: hydrochloride salts in aqueous 5% dextrose
# Protocol: Male athymic nu/nu mice, 6-8 weeks old (approximately 20 g), were implanted subcutaneously in the right fore flank with 20-30 mg pieces of MIA PaCa-2 tumor harvested from similar nu/nu mice that had previously been implanted with the MIA PaCa-2 tumor. […] A group of mice was treated with compounds 2A, 3A, and 5A, in all cases as the hydrochloride salts dissolved in aqueous 5% dextrose, at 100 mg/Kg by intraperitoneal injection once/day for 7 consecutive days, with vehicle control.
# [10] = system: MX-1 tumor; experiment: MX-1 Xenograft Assay, Intravenous Administration; type: in vivo, athymic nu/nu mice; details: hydrochloride salt in aqueous 5% dextrose
# Protocol: as §1
# A study similar to that described in In vivo Example 1 was performed using intravenous administration of compound 2A. A group of mice was treated with the compound, as the hydrochloride salt dissolved in aqueous 5% dextrose, at 40 and 80 mg/Kg by tail vein injection once/day for 5 consecutive days, with vehicle control.
# [11] = 100 mg/Kg intraperitoneal once/day for 5 days
# [12] = 50 mg/Kg intraperitoneal once/day for 5 days
structure (smiles),measurement,setting,value
"CN(C)CCS(=O)(=O)CCOP(=O)(N(CCCl)CCCl)N(CCCl)CCCl [Compound 1A, 2-{[2-(dimethylamino)ethyl]sulfonyl}ethyl N,N,N′,N′-tetrakis(2-chloroethyl)phosphorodiamidate]",tumor growth inhibition compared to vehicle,[1]; [11],100%
same,IC50,[2],11 µM
same,IC50,[3],130 µM
same,IC50,[4],39 µM
same,IC50,[5],43 µM
same,solubility in water (in words),[6]; citrate salt,somewhat more soluble than the citrate salt of compound 2A
same,solubility in water (in words),[6]; hydrochloride salt,highly soluble in water
"CCN(CC)CCS(=O)(=O)CCOP(=O)(N(CCCl)CCCl)N(CCCl)CCCl [Compound 2A, 2-{[2-(diethylamino)ethyl]sulfonyl}ethyl N,N,N′,N′-tetrakis(2-chloroethyl)phosphorodiamidate]",inhibition of tumor growth compared to vehicle,[7]; 100 mg/Kg by gavage once/day for 5 days,92%
same,inhibition of tumor growth compared to vehicle,[7]; 300 mg/Kg by gavage once/day for 5 days,100%
same,potency relative to canfosfamide,[8],more potent
same,body weight effect,[9],some body weight loss
same,tumor growth inhibition compared to vehicle,[9],89%
same,tumor growth inhibition compared to vehicle,[1]; [12],70%
same,tumor growth inhibition compared to vehicle,[1]; [11],100%
same,IC50,[2],7.9 µM
same,IC50,[3],75 µM
same,IC50,[4],16 µM
same,IC50,[5],16 µM
same,inhibition of tumor growth compared to vehicle,[10]; 40 mg/Kg tail vein injection once/day for 5 days,53%
same,inhibition of tumor growth compared to vehicle,[10]; 80 mg/Kg tail vein injection once/day for 5 days,99%
same,solubility in water (in words),[6]; tartrate salt,slightly more soluble than the citrate salt
same,solubility,[6]; citrate salt,~19 mg/mL
same,solubility,[6]; hydrochloride salt,≥ 50 mg/mL
"CC(C)N(CCS(=O)(=O)CCOP(=O)(N(CCCl)CCCl)N(CCCl)CCCl)C(C)C [Compound 3A, 2-{[2-(diisopropylamino)ethyl]sulfonyl}ethyl N,N,N′,N′-tetrakis(2-chloroethyl)phosphorodiamidate]",inhibition of tumor growth compared to vehicle,[7]; 150 mg/Kg by gavage once/day for 5 days,98%
same,potency relative to canfosfamide,[8],more potent
same,body weight effect,[9],some body weight loss
same,tumor growth inhibition compared to vehicle,[9],89%
same,tumor growth inhibition compared to vehicle,[1]; [12],23%
same,tumor growth inhibition compared to vehicle,[1]; [11],100%
same,IC50,[2],5 µM
same,IC50,[3],16 µM
same,IC50,[4],6.8 µM
same,IC50,[5],5 µM
"O=P(OCCS(=O)(=O)CCN1CCCC1)(N(CCCl)CCCl)N(CCCl)CCCl [Compound 4A, 2-{[2-(pyrrolidin-1-yl)ethyl]sulfonyl}ethyl N,N,N′,N′-tetrakis(2-chloroethyl)phosphorodiamidate]",IC50,[2],8.6 µM
same,IC50,[3],100 µM
same,IC50,[4],29 µM
same,IC50,[5],26 µM
"O=P(OCCS(=O)(=O)CCN1CCCCC1)(N(CCCl)CCCl)N(CCCl)CCCl [Compound 5A, 2-{[2-(piperidin-1-yl)ethyl]sulfonyl}ethyl N,N,N′,N′-tetrakis(2-chloroethyl)phosphorodiamidate]",body weight effect,[9],some body weight loss
same,tumor growth inhibition compared to vehicle,[9],62%
same,tumor growth inhibition compared to vehicle,[1]; [11],91%
same,IC50,[2],13 µM
same,IC50,[3],140 µM
same,IC50,[4],36 µM
same,IC50,[5],41 µM
